The record followed here is patent US20250353891A1 (MEDIMMUNE LIMITED, priority 2022, published 2025).

The target in assay [1] is human GLP-1 receptor (hGLP-1R) (Homo sapiens, UniProt P43220). The experiment in a line: cAMP production (HTRF) in CHO cells expressing hGLP-1R. More on the design: expressed in transfected cells. As to conditions: for EC50: geometric mean, read-out: hGLP-1R EC50; for % Relative Potency Ratio: % GLP-1R activity relative to GLP-1 / % GlucR activity relative to glucagon. The assay is classed as cell-based. The gist of the method: (§1)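 Read-out: HTRF cAMP (anti-cAMP cryptate donor, cAMP-d2 acceptor in conjugate/lysis buffer), converted to % Delta F and fitted by 4-parameter logistic for EC50. Cell densities were 1×10^5 cells/mL (hGLP-1R) or 2×10^5 cells/mL (hGCGR). Stimulation lasted 30 min at room temperature.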
human GLP-1 receptor (hGLP-1R), sequence (P43220 24-463): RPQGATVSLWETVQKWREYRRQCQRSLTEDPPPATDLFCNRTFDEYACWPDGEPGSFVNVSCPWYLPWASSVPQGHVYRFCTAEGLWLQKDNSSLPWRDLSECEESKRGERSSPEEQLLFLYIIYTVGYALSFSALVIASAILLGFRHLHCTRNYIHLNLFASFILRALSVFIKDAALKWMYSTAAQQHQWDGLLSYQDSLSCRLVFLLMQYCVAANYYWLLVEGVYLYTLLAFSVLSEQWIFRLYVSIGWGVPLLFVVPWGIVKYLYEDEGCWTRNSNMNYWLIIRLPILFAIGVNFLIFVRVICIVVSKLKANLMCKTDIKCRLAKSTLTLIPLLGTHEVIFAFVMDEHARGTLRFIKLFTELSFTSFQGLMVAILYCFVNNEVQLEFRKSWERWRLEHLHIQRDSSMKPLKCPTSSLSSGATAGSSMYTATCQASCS

For assay [2], the target named is human glucagon receptor (hGCGR) (Homo sapiens, UniProt P47871). The experiment in a line: cAMP production (HTRF) in CHO cells expressing hGCGR. Further details: expressed in transfected cells. Conditions: geometric mean, read-out: hGluc-R EC50. Format: cell-based. The gist of the method:
as §1

Setting [3] is: Table 6, peptides modified at position 17, cAMP in CHO hGLP-1R cells.
The mark [4] stands for this setting: Table 6, peptides modified at position 17, cAMP in CHO hGCGR cells.

Read-outs that look alike come from different tables or passages of the source. Starred links: 1 amine or outer side, 2 acyl side, 3 side chain; linkers in the order of their positions; H or OH if unused. Non-standard residues stand in square brackets, D forms with d. Residues, ends and D or L forms follow the SMILES beside them. Groups on a side chain read outwards from the residue. *: point of attachment. C20 diacid = O=C(O)CCCCCCCCCCCCCCCCCCC(=O)*; C18 diacid = O=C(O)CCCCCCCCCCCCCCCCC(=O)*; γGlu = O=C(O)[C@H](CCC(=O)[*:2])N[*:1]; αMeF = C[C@](N)(Cc1ccccc1)C(=O)O; AEEA = NCCOCCOCC(=O)O; Aib = CC(C)(N)C(=O)O

human glucagon receptor (hGCGR), sequence (P47871 26-477): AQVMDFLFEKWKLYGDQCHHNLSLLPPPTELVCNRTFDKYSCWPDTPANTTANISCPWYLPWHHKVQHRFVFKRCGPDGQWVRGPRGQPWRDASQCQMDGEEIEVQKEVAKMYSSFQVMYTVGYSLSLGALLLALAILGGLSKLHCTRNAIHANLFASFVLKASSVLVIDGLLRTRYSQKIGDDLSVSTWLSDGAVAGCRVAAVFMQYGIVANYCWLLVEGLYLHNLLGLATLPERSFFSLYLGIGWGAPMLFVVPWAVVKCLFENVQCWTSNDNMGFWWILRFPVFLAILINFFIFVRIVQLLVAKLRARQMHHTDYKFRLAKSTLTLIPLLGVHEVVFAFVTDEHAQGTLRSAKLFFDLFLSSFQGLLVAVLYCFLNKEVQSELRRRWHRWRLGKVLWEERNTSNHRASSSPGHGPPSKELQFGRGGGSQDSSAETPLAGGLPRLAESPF

With `CC(C)C[C@H](NC(=O)[C@H](CC(C)C)NC(=O)[C@H](Cc1c[nH]c2ccccc12)NC(=O)[C@H](CCC(N)=O)NC(=O)[C@@H](NC(=O)[C@H](Cc1ccccc1)NC(=O)[C@H](CC(=O)O)NC(=O)[C@H](CCCNC(=N)N)NC(=O)[C@H](C)NC(=O)[C@H](CCCNC(=N)N)NC(=O)[C@H](CCCCNC(=O)COCCOCCNC(=O)COCCOCCNC(=O)CC[C@H](NC(=O)CCCCCCCCCCCCCCCCCCC(=O)O)C(=O)O)NC(=O)[C@@H](NC(=O)[C@H](CC(=O)O)NC(=O)[C@H](CC(C)C)NC(=O)[C@](C)(Cc1ccccc1)NC(=O)[C@H](CCCCN)NC(=O)[C@H](CO)NC(=O)[C@@H](NC(=O)[C@H](CC(=O)O)NC(=O)[C@H](CO)NC(=O)[C@@H](NC(=O)[C@H](Cc1ccccc1)NC(=O)[C@@H](NC(=O)CNC(=O)[C@H](CCC(N)=O)NC(=O)C(C)(C)NC(=O)[C@@H](N)Cc1c[nH]cn1)[C@@H](C)O)[C@@H](C)O)C(C)C)[C@@H](C)O)C(C)C)C(=O)N[C@@H](C)C(=O)NC(C)(C)C(=O)NCC(N)=O` [Peptide 475] (H-H[Aib]QGTFTSDVSK[αMeF]LDTK([AEEA-AEEA-γGlu-C20 diacid])RARDFVQWLLA[Aib]G-NH2), the concentration giving a half-maximal response (EC50) (usually the midpoint of the concentration-response curve) in assay [1] (setting [3]) stood at 6.75 pM; in assay [2] (setting [4]) it was 61.5 pM. Besides, the “% Relative Potency Ratio” value in assay [1] (Table 6) is 18.0.

In the case of `CC[C@H](C)[C@H](NC(=O)[C@H](Cc1c[nH]c2ccccc12)NC(=O)[C@H](CCC(N)=O)NC(=O)[C@@H](NC(=O)[C@](C)(Cc1ccccc1)NC(=O)[C@H](CC(=O)O)NC(=O)[C@H](CCCCNC(=O)COCCOCCNC(=O)COCCOCCNC(=O)CC[C@H](NC(=O)CC[C@H](NC(=O)CCCCCCCCCCCCCCCCC(=O)O)C(=O)O)C(=O)O)NC(=O)[C@H](C)NC(=O)[C@H](C)NC(=O)[C@H](CCCNC(=N)N)NC(=O)[C@H](CO)NC(=O)[C@H](CC(=O)O)NC(=O)[C@H](CC(C)C)NC(=O)[C@](C)(Cc1ccccc1)NC(=O)[C@H](CCCCN)NC(=O)[C@H](CO)NC(=O)[C@@H](NC(=O)[C@H](CC(=O)O)NC(=O)[C@H](CO)NC(=O)[C@@H](NC(=O)[C@](C)(Cc1ccccc1)NC(=O)[C@H](CO)NC(=O)CNC(=O)[C@H](Cc1c[nH]cn1)NC(=O)C(C)(C)NC(=O)[C@@H](N)Cc1c[nH]cn1)[C@@H](C)O)C(C)C)C(C)C)C(=O)N[C@@H](C)C(=O)N[C@@H](CC(N)=O)C(=O)N[C@H](C(=O)NCC(N)=O)[C@@H](C)O` [Peptide 240] (H-H[Aib]HGS[αMeF]TSDVSK[αMeF]LDSRAAK([AEEA-AEEA-γGlu-γGlu-C18 diacid])D[αMeF]VQWIANTG-NH2), the EC50 in assay [1] (Table 7, peptides modified at position 20, cAMP in CHO hGLP-1R cells) was 57.1 pM; in assay [2] (Table 7, peptides modified at position 20, cAMP in CHO hGCGR cells) it was 332 pM. Moreover, in assay [1] (Table 7), the “% Relative Potency Ratio” value was 11.5.

Turning to `CC(C)C[C@H](NC(=O)[C@H](CC(C)C)NC(=O)[C@H](Cc1c[nH]c2ccccc12)NC(=O)[C@H](CCCNC(=N)N)NC(=O)[C@@H](NC(=O)[C@H](Cc1ccccc1)NC(=O)[C@H](CC(=O)O)NC(=O)[C@H](CCC(N)=O)NC(=O)[C@H](C)NC(=O)[C@H](CCCNC(=N)N)NC(=O)[C@H](CCCCNC(=O)COCCOCCNC(=O)COCCOCCNC(=O)CC[C@H](NC(=O)CCCCCCCCCCCCCCCCC(=O)O)C(=O)O)NC(=O)[C@H](CO)NC(=O)[C@H](CC(=O)O)NC(=O)[C@H](CC(C)C)NC(=O)[C@](C)(Cc1ccccc1)NC(=O)[C@H](CCCCN)NC(=O)[C@H](CO)NC(=O)[C@@H](NC(=O)[C@H](CC(=O)O)NC(=O)[C@H](CO)NC(=O)[C@@H](NC(=O)[C@H](Cc1ccccc1)NC(=O)[C@@H](NC(=O)CNC(=O)[C@H](CCC(N)=O)NC(=O)C(C)(C)NC(=O)[C@@H](N)Cc1c[nH]cn1)[C@@H](C)O)[C@@H](C)O)C(C)C)C(C)C)C(=O)N[C@@H](CCC(=O)O)C(=O)N[C@@H](C)C(=O)NCC(=O)O` [Peptide 179] (H-H[Aib]QGTFTSDVSK[αMeF]LDSK([AEEA-AEEA-γGlu-C18 diacid])RAQDFVRWLLEAG-OH; N-terminus assumed), the EC50 was determined as 131 pM in assay [1] (setting [3]) and 203 pM in assay [2] (setting [4]). Also, in assay [1] (Table 6), the “% Relative Potency Ratio” value came to 3.1.

Consider `CC(C)C[C@H](NC(=O)[C@H](Cc1c[nH]c2ccccc12)NC(=O)[C@H](CCC(N)=O)NC(=O)[C@@H](NC(=O)[C@H](Cc1ccccc1)NC(=O)[C@H](CC(=O)O)NC(=O)[C@H](CCCNC(=N)N)NC(=O)[C@H](C)NC(=O)[C@H](CCCNC(=N)N)NC(=O)[C@H](CCCCNC(=O)COCCOCCNC(=O)COCCOCCNC(=O)CC[C@H](NC(=O)CCCCCCCCCCCCCCCCC(=O)O)C(=O)O)NC(=O)[C@@H](NC(=O)[C@H](CC(=O)O)NC(=O)[C@H](CC(C)C)NC(=O)[C@](C)(Cc1ccccc1)NC(=O)[C@H](CCCCN)NC(=O)[C@H](CO)NC(=O)[C@@H](NC(=O)[C@H](CC(=O)O)NC(=O)[C@H](CO)NC(=O)[C@@H](NC(=O)[C@H](Cc1ccccc1)NC(=O)[C@@H](NC(=O)CNC(=O)[C@H](CCC(N)=O)NC(=O)C(C)(C)NC(=O)[C@@H](N)Cc1c[nH]cn1)[C@@H](C)O)[C@@H](C)O)C(C)C)[C@@H](C)O)C(C)C)C(=O)N[C@@H](CC(C)C)C(=O)NC(C)(C)C(=O)N[C@H](C(=O)N[C@@H](CCC(=O)O)C(=O)O)[C@@H](C)O` [Peptide 487] (H-H[Aib]QGTFTSDVSK[αMeF]LDTK([AEEA-AEEA-γGlu-C18 diacid])RARDFVQWLL[Aib]TE-OH), for which the EC50 in assay [1] (setting [3]) stood at 65.5 pM; in assay [2] (setting [4]), 164 pM. Also, the “% Relative Potency Ratio” value in assay [1] (Table 6) amounted to 5.0.

Consider `CC[C@H](C)[C@H](NC(=O)[C@H](Cc1c[nH]c2ccccc12)NC(=O)[C@H](CCCCNC(=O)COCCOCCNC(=O)COCCOCCNC(=O)CC[C@H](NC(=O)CC[C@H](NC(=O)CCCCCCCCCCCCCCCCC(=O)O)C(=O)O)C(=O)O)NC(=O)[C@@H](NC(=O)[C@H](Cc1ccccc1)NC(=O)[C@H](CC(=O)O)NC(=O)[C@H](CCC(N)=O)NC(=O)[C@H](C)NC(=O)[C@H](C)NC(=O)[C@H](CCCNC(=N)N)NC(=O)[C@H](CO)NC(=O)[C@H](CC(=O)O)NC(=O)[C@H](CC(C)C)NC(=O)[C@](C)(Cc1ccccc1)NC(=O)[C@H](CCCCN)NC(=O)[C@H](CO)NC(=O)[C@@H](NC(=O)[C@H](CC(=O)O)NC(=O)[C@H](CO)NC(=O)[C@@H](NC(=O)[C@](C)(Cc1ccccc1)NC(=O)[C@H](CO)NC(=O)CNC(=O)[C@H](Cc1c[nH]cn1)NC(=O)C(C)(C)NC(=O)[C@@H](N)Cc1c[nH]cn1)[C@@H](C)O)C(C)C)C(C)C)C(=O)N[C@@H](C)C(=O)N[C@@H](CC(N)=O)C(=O)N[C@H](C(N)=O)[C@@H](C)O` [Peptide 362] (H-H[Aib]HGS[αMeF]TSDVSK[αMeF]LDSRAAQDFVK([AEEA-AEEA-γGlu-γGlu-C18 diacid])WIANT-NH2; N-terminus assumed), for which the “% Relative Potency Ratio” value in assay [1] is reported as 1.5. Further, the EC50 came to 54.8 pM in assay [1] (cAMP, CHO cells, 0.1% BSA) and 42.8 pM in assay [2] (cAMP, CHO cells, 0.1% BSA).
